Laboratory results as given in US12203060B1, “Cell culture” (FIBROFIND IP LIMITED, priority 2015, dated 2025).

What was measured:
[1] = test system: precision cut liver slices (PCLS); experiment: Albumin production by precision cut liver slices cultured on CMR2 (albumin ELISA); format: cell-based; settings: PCLS on CMR2, fat, fat+LPS or BSA vehicle for 48 h after a 24 h rest period; FIG. 27
Procedure: (§1) Liver tissue was placed in a 10 cm dish containing Hanks Buffered Saline Solution (HBSS+, Lonza, BE10-508F). Four to eight mm cores of liver tissue were made using a Stiefel Biopsy Punch. Cores were then transferred to a metal mould and submerged in 2.5-3.0% low gelling temperature agarose (Sigma, A9414) and then placed on ice for 2-5 minutes.
(§2) Once set, the cores in agarose were super-glued to a vibratome mounting stage and submersed in the media chamber in ice cold HBSS+prior to cutting on a Leica VT1200 S fully automated vibrating blade microtome. Liver tissue cores were cut at a speed of 0.3 mm/see, and an amplitude 2 mm and thickness (step size) of 250 μm. Slices having a thickness of between 200-400 μm can be used.
Slices were transferred to 3 μm, 8 μm or 100 μm pore inserts provided in static (Griener) or CMR tissue culture plates. […]
100 μl of the slice culture media diluted 1:250 was removed from wells comprising slices in either a static culture plate, a unidirectional system or the CMR culture plate apparatus which was rocked using a rocking apparatus as described herein. The media was used to quantify albumin release using the Rat Albumin ELISA Quantitation Set (catalogue number E110-125) or Human Albumin ELISA Quantitation Set (catalogue number E80-129) following manufacturer's instructions.

[2] = test system: precision cut liver slices (PCLS); experiment: Expression of fibrosis genes in precision cut liver slices cultured on CMR2; format: cell-based; settings: for expression of fibrosis genes (pro-collagen 1, aSMA, TIMP1): PCLS on CMR2, stimulated for 72 h after a 24 h rest period, FIG. 31
Procedure: as §1, §2
Slices were transferred to 3 μm, 8 μm or 100 μm pore inserts provided in static (Griener) or CMR tissue culture plates. The CMR tissue culture plates of embodiments of the invention comprised either holes between adjacent wells or were rapid prototyped from CAD design to comprise slots between wells. The wells contained slice culture media. The slices were cultured under static, unidirectional or rocked conditions at 37° C. in 5% carbon dioxide in a humidified tissue culture incubator. Twelve or twenty-four well CMR tissue culture plates were used, as indicated.
The slice culture media comprised the following components: • Williams Medium E (Sigma, W4128) • 2% Heat Inactivated Fetal Bovine Serum (Gibco) • Penicillin-Streptomycin (Sigma, P0781) • L-glutamine (Sigma, G7513) • Pyruvate (Sigma, S8636) • 0.5 uM Insulin/transferrin selenium mix (Gibco 51500-056) • 0.1 uM dexamethasone (Sigma, D4902) Urea Assay (Universal Biologicals Cambridge)

[3] = PCLS on CMR2, 3 ng/ml TGFb1 for 48 h, compared to control (untreated), FIG. 26B

Lipopolysaccharide [LPS]
albumin production [1]: did not affect

transforming growth factor beta 1 [TGFb1]
expression of the fibrosis gene alpha-smooth muscle actin (aSMA) [2, 3]: induced expression
expression of the fibrosis gene collagen I [2, 3]: induced expression
expression of the fibrosis gene tissue inhibitor of metalloprotease 1 (TIMP1) [2, 3]: induced expression

transforming growth factor beta [TGFb]
expression of fibrosis genes (pro-collagen 1, aSMA, TIMP1) [2]: induce expression

B1: platelet derived growth factor b (protein, UniProt P01127 82-190, looked up)
Platelet-derived growth …: SLGSLTIAEPAMIAECKTRTEVFEISRRLIDRTNANFLVWPPCVEVQRCSGCCNNRNVQCRPTQVQLRPVQVRKIEIVRKKPIFKKATVTLEDHLACKCETVAAARPVT
modifications: homodimer
notes: fibrosis-stimulating factor added to liver slices
expression of fibrosis genes (pro-collagen 1, aSMA, TIMP1) [2]: induce expression
